≈ marks a conversion by molar mass, not a printed value. Calls of active or inactive are those of the source. The rule behind the calls is not given here.
Assays:
[1] = Selectivity index, ratio of CC50 for human A549 cells to MIC for fluconazole/ITC-resistant Candida albicans ATCC 90819; type: toxicity; settings: read-out: Selectivity Index
[2] = Selectivity index, ratio of compound concentration showing <25% hemolysis in mouse RBC to MIC for fluconazole/ITC-resistant Candida albicans ATCC 10231; type: toxicity; settings: mouse red blood cells (RBC), read-out: Selectivity Index
[3] = Selectivity index, ratio of compound concentration showing <25% hemolysis in mouse RBC to MIC for Candida krusei ATCC 6258; type: toxicity; settings: mouse red blood cells (RBC), read-out: Selectivity Index
[4] = Selectivity index, ratio of CC50 for human A549 cells to MIC for Candida parapsilosis ATCC 22019; type: toxicity; settings: read-out: Selectivity Index
[5] = Hemolytic activity in mouse RBC at 62.5 ug/ml after 1 hr relative to control; type: ADME, cell-based, Erythrocyte; settings: red blood cells (erythrocytes), read-out: Activity
[6] = Selectivity index, ratio of CC50 for human A549 cells to MIC for fluconazole/ITC-resistant Candida albicans ATCC 10231; type: toxicity; settings: read-out: Selectivity Index
Aspergillus flavus = experiment: Antifungal activity against Aspergillus flavus ATCC MYA-3631 measured after 48 hrs by CLSI M38-A2 protocol based method; type: functional; settings: ATCC MYA-3631, 48 h
Candida albicans [7] = experiment: Antifungal activity against fluconazole/ITC-resistant Candida albicans ATCC MYA-1237 measured after 48 hrs by CLSI M27-A3 protocol based method; type: functional; settings: ATCC MYA-1237, 48 h
[8] = Selectivity index, ratio of compound concentration showing <25% hemolysis in mouse RBC to MIC for fluconazole/ITC-resistant Candida albicans ATCC MYA-1003; type: toxicity; settings: mouse red blood cells (RBC), read-out: Selectivity Index
[9] = Selectivity index, ratio of compound concentration showing <25% hemolysis in mouse RBC to MIC for Aspergillus nidulans ATCC 38163; type: toxicity; settings: mouse red blood cells (RBC), read-out: Selectivity Index
Candida albicans [10] = experiment: Antifungal activity against fluconazole/ITC-resistant Candida albicans ATCC 90819 measured after 48 hrs by CLSI M27-A3 protocol based method; type: functional; settings: ATCC 90819, 48 h
Candida albicans [11] = experiment: Antifungal activity against fluconazole/ITC-susceptible Candida albicans ATCC MYA-2310 measured after 48 hrs by CLSI M27-A3 protocol based method; type: functional; settings: ATCC MYA-2310, 48 h
[12] = Selectivity index, ratio of compound concentration showing <25% hemolysis in mouse RBC to MIC for Candida parapsilosis ATCC 22019; type: toxicity; settings: mouse red blood cells (RBC), read-out: Selectivity Index
[13] = Selectivity index, ratio of CC50 for human A549 cells to MIC for Candida krusei ATCC 6258; type: toxicity; settings: read-out: Selectivity Index
Aspergillus terreus = experiment: Antifungal activity against Aspergillus terreus ATCC MYA-3633 measured after 48 hrs by CLSI M38-A2 protocol based method; type: functional; settings: ATCC MYA-3633, 48 h
[14] = Selectivity index, ratio of compound concentration showing <25% hemolysis in mouse RBC to MIC for Aspergillus terreus ATCC MYA-3633; type: toxicity; settings: mouse red blood cells (RBC), read-out: Selectivity Index
Nakaseomyces glabratus = experiment: Antifungal activity against Candida glabrata ATCC 2001 measured after 48 hrs by CLSI M27-A3 protocol based method; type: functional; settings: CBS 138, 48 h
Enterococcus = experiment: Antibacterial activity against vancomycin-resistant Enterococcus; type: functional, organism-based
[15] = Hemolytic activity in mouse RBC at […] ug/ml after 1 hr relative to control; type: ADME, cell-based, Erythrocyte; settings: red blood cells (erythrocytes), read-out: Activity
Candida albicans [16] = experiment: Antifungal activity against fluconazole/ITC-resistant Candida albicans ATCC 64124 measured after 48 hrs by CLSI M27-A3 protocol based method; type: functional; settings: ATCC 64124, 48 h
[17] = Selectivity index, ratio of CC50 for human A549 cells to MIC for fluconazole/ITC-resistant Candida albicans ATCC MYA-1237; type: toxicity; settings: read-out: Selectivity Index
[18] = Selectivity index, ratio of CC50 for human A549 cells to MIC for fluconazole/ITC-susceptible Candida albicans ATCC MYA-2876; type: toxicity; settings: read-out: Selectivity Index
[19] = Selectivity index, ratio of CC50 for human A549 cells to MIC for Aspergillus flavus ATCC MYA-3631; type: toxicity; settings: read-out: Selectivity Index
[20] = Selectivity index, ratio of CC50 for human A549 cells to MIC for Aspergillus nidulans ATCC 38163; type: toxicity; settings: read-out: Selectivity Index
[21] = Selectivity index, ratio of compound concentration showing <25% hemolysis in mouse RBC to MIC for fluconazole/ITC-susceptible Candida albicans ATCC MYA-2876; type: toxicity; settings: mouse red blood cells (RBC), read-out: Selectivity Index
[22] = Selectivity index, ratio of compound concentration showing <25% hemolysis in mouse RBC to MIC for Aspergillus flavus ATCC MYA-3631; type: toxicity; settings: mouse red blood cells (RBC), read-out: Selectivity Index
A549 = experiment: Cytotoxicity against human A549 cells after 24 hrs by resazurin based assay; type: cell-based; settings: a549, 24 h
Candida albicans [23] = experiment: Antifungal activity against fluconazole/ITC-susceptible Candida albicans ATCC MYA-2876 measured after 48 hrs by CLSI M27-A3 protocol based method; type: functional; settings: ATCC MYA-2876, 48 h
Listeria monocytogenes = experiment: Antibacterial activity against Listeria monocytogenes; type: functional, organism-based
[24] = Selectivity index, ratio of CC50 for human A549 cells to MIC for fluconazole/ITC-resistant Candida albicans ATCC 64124; type: toxicity; settings: read-out: Selectivity Index
[25] = Hemolytic activity in mouse RBC at […] after 1 hr relative to control; type: ADME, cell-based, Erythrocyte; settings: red blood cells (erythrocytes), read-out: Activity; also: tested at 0.48 µg/mL
[26] = Hemolytic activity in mouse RBC at 3.9 ug/ml after 1 hr relative to control; type: ADME, cell-based, Erythrocyte; settings: red blood cells (erythrocytes), read-out: Activity
[27] = Selectivity index, ratio of CC50 for human A549 cells to MIC for fluconazole/ITC-susceptible Candida albicans ATCC MYA-2310; type: toxicity; settings: read-out: Selectivity Index
Candida albicans [28] = experiment: Antifungal activity against fluconazole/ITC-resistant Candida albicans ATCC MYA-1003 measured after 48 hrs by CLSI M27-A3 protocol based method; type: functional; settings: ATCC MYA-1003, 48 h
Staphylococcus aureus = experiment: Antibacterial activity against methicillin-resistant Staphylococcus aureus; type: functional, organism-based
[29] = Selectivity index, ratio of compound concentration showing <25% hemolysis in mouse RBC to MIC for fluconazole/ITC-resistant Candida albicans ATCC 90819; type: toxicity; settings: mouse red blood cells (RBC), read-out: Selectivity Index
[30] = Hemolytic activity in mouse RBC at 31.3 ug/ml after 1 hr relative to control; type: ADME, cell-based, Erythrocyte; settings: red blood cells (erythrocytes), read-out: Activity
[31] = Selectivity index, ratio of CC50 for human A549 cells to MIC for Aspergillus terreus ATCC MYA-3633; type: toxicity; settings: read-out: Selectivity Index
Candida parapsilosis = experiment: Antifungal activity against Candida parapsilosis ATCC 22019 measured after 48 hrs by CLSI M27-A3 protocol based method; type: functional; settings: Lodderomyces parapsilosis, ATCC 22019, 48 h
BEAS-2B = experiment: Cytotoxicity against human BEAS2B cells after 24 hrs by resazurin based assay; type: cell-based
[32] = Selectivity index, ratio of compound concentration showing <25% hemolysis in mouse RBC to MIC for fluconazole/ITC-resistant Candida albicans ATCC MYA-1237; type: toxicity; settings: mouse red blood cells (RBC), read-out: Selectivity Index
Pichia kudriavzevii = experiment: Antifungal activity against Candida krusei ATCC 6258 measured after 48 hrs by CLSI M27-A3 protocol based method; type: functional; settings: ATCC 6258, 48 h
[33] = Selectivity index, ratio of compound concentration showing <25% hemolysis in mouse RBC to MIC for fluconazole/ITC-susceptible Candida albicans ATCC MYA-2310; type: toxicity; settings: mouse red blood cells (RBC), read-out: Selectivity Index
[34] = Selectivity index, ratio of CC50 for human A549 cells to MIC for Candida glabrata ATCC 2001; type: toxicity; settings: read-out: Selectivity Index
[35] = Hemolytic activity in mouse RBC at 1.95 ug/ml after 1 hr relative to control; type: ADME, cell-based, Erythrocyte; settings: red blood cells (erythrocytes), read-out: Activity
[36] = Hemolytic activity in mouse RBC at 7.8 ug/ml after 1 hr relative to control; type: ADME, cell-based, Erythrocyte; settings: red blood cells (erythrocytes), read-out: Activity
Aspergillus nidulans = experiment: Antifungal activity against Aspergillus nidulans ATCC 38163 measured after 48 hrs by CLSI M38-A2 protocol based method; type: functional; settings: ATCC 38163, 48 h
[37] = Selectivity index, ratio of CC50 for human A549 cells to MIC for fluconazole/ITC-resistant Candida albicans ATCC MYA-1003; type: toxicity; settings: read-out: Selectivity Index
Candida albicans [38] = experiment: Antifungal activity against fluconazole/ITC-resistant Candida albicans ATCC 10231 measured after 48 hrs by CLSI M27-A3 protocol based method; type: functional; settings: ATCC 10231, 48 h
[39] = Selectivity index, ratio of compound concentration showing <25% hemolysis in mouse RBC to MIC for fluconazole/ITC-resistant Candida albicans ATCC 64124; type: toxicity; settings: mouse red blood cells (RBC), read-out: Selectivity Index
[40] = Selectivity index, ratio of compound concentration showing <25% hemolysis in mouse RBC to MIC for Candida glabrata ATCC 2001; type: toxicity; settings: mouse red blood cells (RBC), read-out: Selectivity Index

Compound: Fc1ccc(N/N=C/c2ccc(-c3cccc(/C=N/Nc4ccc(F)cc4F)c3)cc2)c(F)c1
- selectivity ratio [1]: 1.1
- selectivity ratio [2]: 1 to 32
- selectivity ratio [3]: 1 to 32
- selectivity ratio [4]: 0.5
- hemolysis at 1 h, 62.5 ug/ml [5]: 23.5%
- selectivity ratio [6]: 4.2
- MIC (Aspergillus flavus): 7.8 µg/mL (≈ 16.9 µM)
- MIC (Candida albicans [7]): 7.8 µg/mL (≈ 16.9 µM)
- selectivity ratio [8]: 1 to 32
- selectivity ratio [9]: 1 to 32
- MIC (Candida albicans [10]): 15.6 µg/mL (≈ 33.7 µM)
- MIC (Candida albicans [11]): 15.6 µg/mL (≈ 33.7 µM)
- selectivity ratio [12]: 1 to 32
- selectivity ratio [13]: 8.4
- MIC (Aspergillus terreus): 31.3 µg/mL (≈ 67.7 µM)
- selectivity ratio [14]: 1 to 32
- MIC (Nakaseomyces glabratus): 15.6 µg/mL (≈ 33.7 µM)
- Activity (Enterococcus): inactive
- hemolysis at 1 h, 15.6 ug/ml ([15]; at 15.6 µg/mL): 14.6%
- hemolysis at 1 h, 0.975 ug/ml [15]: 0%
- MIC (Candida albicans [16]): 7.8 µg/mL (≈ 16.9 µM)
- selectivity ratio [17]: 2.1
- selectivity ratio [18]: 1.1
- selectivity ratio [19]: 2.1
- selectivity ratio [20]: 2.1
- selectivity ratio [21]: 1 to 32
- selectivity ratio [22]: 1 to 32
- CC50 (A549): 16.4 µg/mL (≈ 35.5 µM)
- MIC (Candida albicans [23]): 15.6 µg/mL (≈ 33.7 µM)
- Activity (Listeria monocytogenes): inactive
- selectivity ratio [24]: 2.1
- hemolysis at 1 h, […] [25]: 1.6%
- hemolysis at 1 h, 3.9 ug/ml [26]: 4.2%
- selectivity ratio [27]: 1.1
- MIC (Candida albicans [28]): 7.8 µg/mL (≈ 16.9 µM)
- Activity (Staphylococcus aureus): inactive
- selectivity ratio [29]: 1 to 32
- hemolysis at 1 h, 31.3 ug/ml [30]: 14.6%
- selectivity ratio [31]: 0.5
- MIC (Candida parapsilosis): 31.3 µg/mL (≈ 67.7 µM)
- CC50 (BEAS-2B): 16.9 µg/mL (≈ 36.5 µM)
- selectivity ratio [32]: 1 to 32
- MIC (Pichia kudriavzevii): 1.95 µg/mL (≈ 4.22 µM)
- selectivity ratio [33]: 1 to 32
- selectivity ratio [34]: 1.1
- hemolysis at 1 h, 1.95 ug/ml [35]: 4.5%
- hemolysis at 1 h, 7.8 ug/ml [36]: 8.6%
- MIC (Aspergillus nidulans): 7.8 µg/mL (≈ 16.9 µM)
- selectivity ratio [37]: 2.1
- MIC (Candida albicans [38]): 3.9 µg/mL (≈ 8.43 µM)
- selectivity ratio [39]: 1 to 32
- selectivity ratio [40]: 1 to 32

— ChEMBL document CHEMBL4411307, “N,N'-diaryl-bishydrazones in a biphenyl platform: Broad spectrum antifungal agents” (Eur J Med Chem, 2019)
